Earlier results on 39 molecules are cited in PMC12308805, “Ultrahigh-Throughput Virtual Screening Strategies against PPI Targets: A Case Study of STAT Inhibitors” (Journal of Chemical Information and Modeling, 2025).

In the first data set the test system is STAT3. Particulars: sheet 6QHD_actives_decoys; retrospective screening set for STAT3 SH2 domain (PDB 6QHD); […]; ref DUD-E; cited from earlier work.
`CCOC(=O)C1=C(SC)S[C@@H](/C(C(=O)OCC)=C2/NN=C(c3ccccc3)O2)N=C1N` [Decoy644]: the Type result was “Inactive (Decoy)”.
With `CCCNC(=O)CN1CCN(c2cc(C(=O)O)c3cc(NS(=O)(=O)c4cccc(C)c4)ccc3n2)CC1` [Decoy646], the Type result is recorded as “Inactive (Decoy)”.
As to `NCCNC(=O)Cc1ccc(NC(=O)Cc2ccc(Nc3ncnc4c3ncn4[C@@H]3O[C@H](CO)[C@@H](O)[C@H]3O)cc2)cc1` [Decoy655], the Type entry was “Inactive (Decoy)”.
Turning to `O=C(Nc1ccc([N+](=O)[O-])cc1[N+](=O)[O-])[C@@](F)(OC(F)(F)[C@@](F)(OC(F)(F)C(F)(F)C(F)(F)F)C(F)(F)F)C(F)(F)F` [Decoy658], the Type result was “Inactive (Decoy)”.
For the molecule `Cc1ccc(N2C(=O)NC(=O)/C(=C\c3cc(C)n(-c4cc(C(=O)O)cc(C(=O)O)c4)c3C)C2=O)cc1` [Decoy670], the Type entry was “Inactive (Decoy)”.
Turning to `Cc1cc(C(=O)Nc2ccc(S(=O)(=O)Nc3ncccn3)cc2)cc(S(=O)(=O)N(C)C)c1C` [Decoy675], the Type result is on record as “Inactive (Decoy)”.
In the case of `O=c1c(C[C@H](O)CN2CCOCC2)c(O)n(C[C@@H](O)CN2CCOCC2)c(=O)n1C[C@H](O)CN1CCOCC1` [Decoy679], the Type result is on record as “Inactive (Decoy)”.
As for `O=c1c(C[C@H](O)CN2CCOCC2)c(O)n(C[C@H](O)CN2CCOCC2)c(=O)n1C[C@H](O)CN1CCOCC1` [Decoy680], the Type result is recorded as “Inactive (Decoy)”.

Staying with this data set, now noted: sheet 6QHD_actives_decoys; retrospective screening set for STAT3 SH2 domain (PDB 6QHD); decoys generated with DUD-E and presumed inactive, not tested; ref DUD-E; cited from earlier work.
In the case of `Cc1nn(C)c(C)c1CCCN(C)c1ccc(NS(=O)(=O)c2ccc(C(C)C)cc2)cc1C(=O)O` [Decoy642], the Type entry is given as “Inactive (Decoy)”.
Take `CC(=O)OC[C@H]1O[C@@H](O[C@@]2(CO)O[C@@H](CO)[C@@H](OC(C)=O)[C@H]2OC(C)=O)[C@@H](OC(C)=O)[C@@H](OC(C)=O)[C@@H]1O` [Decoy643]: the Type result is “Inactive (Decoy)”.
In the case of `CCOc1ccc([C@@H]2C(C(=O)c3ccc(Cl)cc3)=C(O)C(=O)N2CCCn2ccnc2)cc1OCC` [Decoy645], the Type result is listed as “Inactive (Decoy)”.
As for `COc1cc([C@@H]2C(C(=O)c3ccc4c(c3)OCCO4)=C(O)C(=O)N2CCCn2ccnc2)cc(Br)c1O` [Decoy647], the Type entry is on record as “Inactive (Decoy)”.
Take `OCCN(CCO)C1=N[C@@H]2C(N3CCCCC3)=NC(N(CCO)CCO)=N[C@@H]2C(N2CCCCC2)=N1` [Decoy648]: the Type entry is listed as “Inactive (Decoy)”.
Consider `CC[C@@H](C)[C@@H](NC(=O)CNC(=O)CCc1c(C)c2cc3c(C)coc3c(C)c2oc1=O)C(=O)O` [Decoy649], for which the Type result is listed as “Inactive (Decoy)”.
`CC[C@H](C)[C@@H](NC(=O)CNC(=O)CCc1c(C)c2cc3c(C)coc3c(C)c2oc1=O)C(=O)O` [Decoy650]: the Type entry is “Inactive (Decoy)”.
On to `COc1cc(NC(=S)/N=C(\NCCc2c[nH]cn2)Nc2nc(C)cc(C)n2)c(OC)cc1Cl` [Decoy651], for which the Type result is given as “Inactive (Decoy)”.
In the case of `O=C(O)CN(CC(=O)O)CC1=C[C@H]2C(=CC1=O)Oc1cc(O)c(CN(CC(=O)O)CC(=O)O)cc1[C@@]21OC(=O)c2ccccc21` [Decoy652], the Type entry was “Inactive (Decoy)”.
Consider `Cc1ccc(S(=O)(=O)NCCN(CCN(CCNS(=O)(=O)c2ccc(C)cc2)S(=O)(=O)c2ccc(C)cc2)S(=O)(=O)c2ccc(C)cc2)cc1` [Decoy653], for which the Type entry is “Inactive (Decoy)”.
Consider `CCOC(=O)c1sc(Nc2ccc(NC(=O)C[C@@H](NCCOC)C(=O)O)cc2)nc1C` [Decoy654], for which the Type entry is on record as “Inactive (Decoy)”.
`O=C(NCCCCCCNC(=O)N(CCO)[C@H]1CCS(=O)(=O)C1)N(CCO)[C@@H]1CCS(=O)(=O)C1` [Decoy656]: the Type entry is recorded as “Inactive (Decoy)”.
On to `CC[C@@H](O)[C@@](C)(O)/C=C(\C)C(=O)[C@H](C)C[C@@](C)(OC)[C@H](O[C@@H]1O[C@H](C)C[C@H](N(C)C)[C@H]1O)[C@@H](C)[C@H](O[C@H]1C[C@@](C)(OC)[C@@H](O)[C@H](C)O1)[C@@H](C)C(=O)O` [Decoy657], for which the Type entry is “Inactive (Decoy)”.
Take `COc1cc(NS(=O)(=O)c2ccc(NC(=S)NC(=O)/C=C/c3cccc4ccccc34)cc2)ncn1` [Decoy659]: the Type result is listed as “Inactive (Decoy)”.
As to `CC(=O)O[C@@H]1[C@@H](O)[C@@H](O[C@@H](/C=N\N2CCOCC2)[C@@H](CO)O[C@H](O)/C=N/N2CCOCC2)O[C@@H](CO)[C@H]1O` [Decoy660], the Type entry is “Inactive (Decoy)”.
For `COc1ccc(-c2cc(=O)c3c(O)c(OC)c(O[C@@H]4O[C@H](CO[C@@H]5O[C@@H](C)[C@H](O)[C@@H](O)[C@H]5O)[C@@H](O)[C@H](O)[C@H]4O)cc3o2)cc1` [Decoy661], the Type result is reported as “Inactive (Decoy)”.
Turning to `C=C[C@](C)(O)CC/C=C(\C)C(=O)OC[C@H]1O[C@@H](O[C@@](C)(C=C)CC/C=C(\C)C(=O)O)[C@H](O)[C@@H](OC(=O)/C(C)=C/CC[C@](C)(O)C=C)[C@@H]1O` [Decoy662], the Type result is “Inactive (Decoy)”.
Take `COCCN(C/C(O)=N/c1nc(-c2ccc(Cl)cc2)cn1-c1ccc(OC)cc1)C(=O)C1CCCC1` [Decoy663]: the Type entry is recorded as “Inactive (Decoy)”.
Take `CC(=O)N[C@H]1[C@H]([C@H](O)[C@H](O)CO)O[C@@](O[C@H]2[C@@H](O)[C@@H](CO)O[C@@H](O[C@@H]([C@H](O)[C@@H](O)C=O)[C@H](O)CO)[C@@H]2O)(C(=O)O)C[C@@H]1O` [Decoy664]: the Type entry is recorded as “Inactive (Decoy)”.
Take `COc1ccc(C(=O)Nc2ccc(S(=O)(=O)c3ccc(NC(=O)c4ccc(OC)c(OC)c4)cc3)cc2)cc1OC` [Decoy665]: the Type result is “Inactive (Decoy)”.
In the case of `CN(Cc1cnc2nc(N)nc(N)c2n1)c1ccc(C(=O)N[C@H](CCC(=O)NCCNC(=O)CCCC[C@@H]2SC[C@@H]3NC(=O)N[C@@H]32)C(=O)O)cc1` [Decoy666], the Type entry was “Inactive (Decoy)”.
As for `[H]/N=C(N/C(N)=N\c1nc(C)c2cc(OC)ccc2n1)\C(C(=O)c1ccccc1)=C(/O)OCC` [Decoy667], the Type entry is on record as “Inactive (Decoy)”.
Turning to `O=C(Nc1ccc(S(=O)(=O)Nc2ncccn2)cc1)c1cccc(C(=O)Nc2ccc(S(=O)(=O)Nc3ncccn3)cc2)n1` [Decoy668], the Type entry is “Inactive (Decoy)”.
In the case of `COC(=O)c1ccc(S(=O)(=O)N(CCCO)Cc2cc3cc4c(cc3[nH]c2=O)OCCO4)cc1` [Decoy669], the Type entry is “Inactive (Decoy)”.
Take `CCOC(=O)c1c(NC(=O)c2ccc([N+](=O)[O-])cc2)sc2c(OCCN(CC)CC)c(Br)ccc12` [Decoy671]: the Type result was “Inactive (Decoy)”.
Turning to `Nc1cnn([C@@H]2O[C@@H](COC(=O)c3ccccc3)[C@H](OC(=O)c3ccccc3)[C@@H]2OC(=O)c2ccccc2)c(=O)n1` [Decoy672], the Type entry is reported as “Inactive (Decoy)”.
Turning to `CCOC(=O)C(Sc1nc(N)c(NC(=O)c2ccc(Br)o2)c(=O)[nH]1)C(=O)OCC` [Decoy673], the Type entry is recorded as “Inactive (Decoy)”.
As to `COc1cc([C@H]2C(C(=O)c3nc4c(C)cccn4c3C)=C(O)C(=O)N2CCCN2CCOCC2)ccc1O` [Decoy674], the Type result is “Inactive (Decoy)”.
For the molecule `COc1cc(/C=N/Nc2nc(SCC(=O)Nc3cc(F)ccc3C)n[nH]2)cc(OC)c1OC` [Decoy676], the Type entry is reported as “Inactive (Decoy)”.
With `CCOC(=O)c1ccc(N2C(=O)[C@@H](CC(=O)Nc3ccc(OCC)cc3)N(CCc3ccncc3)C2=S)cc1` [Decoy677], the Type entry is “Inactive (Decoy)”.
As to `COc1ccc(Cl)cc1N/C(N)=N\c1nc(CSc2nnnn2-c2ccccc2)cc(=O)[nH]1` [Decoy678], the Type entry is given as “Inactive (Decoy)”.
